The record followed here is PubChem BioAssay AID212 (DTP/NCI, 2004).

The test concerns BDF1 mice, colon carcinoma 38 sc, T/C %. In words: NCI In Vivo Anticancer Drug Screen. Data for tumor model Colon Carcinoma 38 (subcutaneous) in B6D2F1 (BDF1) mice. The note with it: endpoint: median tumor weight (est.), higher = larger tumour. Put shortly: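 Mice with transplanted tumors are treated with compound or vehicle. Survival or tumor size is then measured in both groups. The ratio of treated to control gives the reported figure.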

Setting [1] is: dose: 50.0 mg/kg/injection, schedule: Q07DX002 (ip), vehicle: saline.
Where [2] appears, read: dose: 100.0 mg/kg/injection, schedule: Q07DX002 (ip), vehicle: saline.
[3] abbreviates: dose: 200.0 mg/kg/injection, schedule: Q07DX002 (ip), vehicle: saline.
[4] abbreviates: dose: 400.0 mg/kg/injection, schedule: Q07DX002 (ip), vehicle: saline.
Where [5] appears, read: dose: 8.0 mg/kg/injection, schedule: Q07DX002 (ip), vehicle: Klucel (hydroxypropylcellulose) (HPC).
Where [6] appears, read: dose: 32.0 mg/kg/injection, schedule: Q07DX002 (ip), vehicle: Klucel (hydroxypropylcellulose) (HPC).
Where [7] appears, read: dose: 64.0 mg/kg/injection, schedule: Q07DX002 (ip), vehicle: Klucel (hydroxypropylcellulose) (HPC).
The mark [8] stands for this setting: dose: 12.5 mg/kg/injection, schedule: Q07DX002 (ip), vehicle: saline.

Several values for one entry are separate records, joined by “and”; a condition that tells them apart may be missing. Equal values may be shown once. Inconclusive results are not listed.

Take `NC(=O)c1c[se]c(C2OC(CO)C(O)C2O)n1` (stereo not given): the T/C is 56 % of control (dose: 25.0 mg/kg/injection, schedule: Q07DX002 (ip), vehicle: water); 79 % of control under setting [1]; 74 % of control (dose: 50.0 mg/kg/injection, schedule: Q07DX002 (ip), vehicle: water); 89 % of control under setting [2]; 44 % of control (dose: 100.0 mg/kg/injection, schedule: Q07DX002 (ip), vehicle: water); 73 % of control under setting [3]. Besides, the T/C by setting is: (dose: 200.0 mg/kg/injection, schedule: Q07DX002 (ip), vehicle: water) 42 % of control; under setting [4], 74 % of control; (dose: 400.0 mg/kg/injection, schedule: Q07DX002 (ip), vehicle: water) 40 % of control; (dose: 800.0 mg/kg/injection, schedule: Q07DX002 (ip), vehicle: saline) 90 % of control.

For `CC1OC1C(=O)C1(O)C(C)C(O)C23OC2(C(O)c2c(O)cccc2C3=O)C1O` (stereo not given), the T/C was 95 % of control and 101 % of control (dose: 2.0 mg/kg/injection, schedule: Q07DX002 (ip), vehicle: Klucel (hydroxypropylcellulose) (HPC)); 77 % of control and 91 % of control (dose: 4.0 mg/kg/injection, schedule: Q07DX002 (ip), vehicle: Klucel (hydroxypropylcellulose) (HPC)); 95 % of control and 102 % of control under setting [5]; 98 % of control under setting [6]; 124 % of control under setting [7].

As to `COC(=O)C12OCC34C(CC5C(C)C6=CC(=O)OC6=CC5(C)C3C(O)C1O)OC(=O)C(OC(C)=O)C24` (stereo not given), the T/C by setting is: (dose: 0.25 mg/kg/injection, schedule: Q07DX002 (ip), vehicle: saline + alcohol) 86 % of control; (dose: 0.5 mg/kg/injection, schedule: Q07DX002 (ip), vehicle: saline + alcohol) 65 % of control; (dose: 1.0 mg/kg/injection, schedule: Q07DX002 (ip), vehicle: saline + alcohol) 96 % of control; (dose: 2.0 mg/kg/injection, schedule: Q07DX002 (ip), vehicle: saline + alcohol) 105 % of control; (dose: 4.0 mg/kg/injection, schedule: Q07DX002 (ip), vehicle: saline + alcohol) 114 % of control.

Consider `Cc1cc(NCCN(C(C)C)C(C)C)nc(/N=C(\N)Nc2ccc(Cl)c(C(F)(F)F)c2)n1`, for which the T/C was 89 % of control (dose: 2.5 mg/kg/injection, schedule: Q07DX002 (ip), vehicle: Klucel (hydroxypropylcellulose) (HPC)); 82 % of control (dose: 10.0 mg/kg/injection, schedule: Q07DX002 (ip), vehicle: Klucel (hydroxypropylcellulose) (HPC)); 95 % of control (dose: 20.0 mg/kg/injection, schedule: Q07DX002 (ip), vehicle: Klucel (hydroxypropylcellulose) (HPC)); 67 % of control (dose: 40.0 mg/kg/injection, schedule: Q07DX002 (ip), vehicle: Klucel (hydroxypropylcellulose) (HPC)).

For `COc1ccc(C2C(=O)c3ccc(OC)cc3OC2c2ccccc2)cc1` (stereo not given), the T/C is 84 % of control (dose: 25.0 mg/kg/injection, schedule: Q07DX002 (ip), vehicle: other); 56 % of control (dose: 50.0 mg/kg/injection, schedule: Q07DX002 (ip), vehicle: other); 47 % of control (dose: 100.0 mg/kg/injection, schedule: Q07DX002 (ip), vehicle: other); 50 % of control (dose: 200.0 mg/kg/injection, schedule: Q07DX002 (ip), vehicle: other); 61 % of control (dose: 400.0 mg/kg/injection, schedule: Q07DX002 (ip), vehicle: other).

For `CC(C)(C)c1ccc(CN2CCN(C(c3ccccc3)c3ccc(Cl)cc3)CC2)cc1` (stereo not given), the T/C under setting [5] is 92 % of control; the T/C (dose: 16.0 mg/kg/injection, schedule: Q07DX002 (ip), vehicle: Klucel (hydroxypropylcellulose) (HPC)) is 34 % of control; the T/C under setting [6] was 82 % of control; the T/C under setting [7] was 89 % of control; the T/C (dose: 256.0 mg/kg/injection, schedule: Q07DX002 (ip), vehicle: Klucel (hydroxypropylcellulose) (HPC)) was 87 % of control.

Take `CC(=O)Nc1ccc(O)c(O)c1`: the T/C (dose: 12.5 mg/kg/injection, schedule: Q07DX002 (ip), vehicle: saline with Tween-80) is 112 % of control; the T/C (dose: 25.0 mg/kg/injection, schedule: Q07DX002 (ip), vehicle: saline with Tween-80) was 86 % of control; the T/C (dose: 50.0 mg/kg/injection, schedule: Q07DX002 (ip), vehicle: saline with Tween-80) is 100 % of control and 102 % of control; the T/C (dose: 100.0 mg/kg/injection, schedule: Q07DX002 (ip), vehicle: saline with Tween-80) was 66 % of control and 83 % of control; the T/C (dose: 200.0 mg/kg/injection, schedule: Q07DX002 (ip), vehicle: saline with Tween-80) is 90 % of control and 95 % of control; the T/C (dose: 400.0 mg/kg/injection, schedule: Q07DX002 (ip), vehicle: saline with Tween-80) is 74 % of control and 75 % of control and 86 % of control. Besides, the T/C (dose: 800.0 mg/kg/injection, schedule: Q07DX002 (ip), vehicle: saline with Tween-80) was 72 % of control.

In the case of `COC(OC(CO)C(O)S(=O)(=O)O)C(O)S(=O)(=O)O` (stereo not given), the T/C under setting [8] is 113 % of control; the T/C (dose: 12.5 mg/kg/injection, schedule: Q07DX003 (ip), vehicle: saline) is 123 % of control; the T/C (dose: 25.0 mg/kg/injection, schedule: Q07DX002 (ip), vehicle: saline) is 108 % of control; the T/C (dose: 25.0 mg/kg/injection, schedule: Q07DX003 (ip), vehicle: saline) is 100 % of control; the T/C under setting [1] is 123 % of control and 105 % of control; the T/C (dose: 50.0 mg/kg/injection, schedule: Q07DX003 (ip), vehicle: saline) is 97 % of control. Further, the T/C by setting is: under setting [2], 95 % of control and 105 % of control; (dose: 100.0 mg/kg/injection, schedule: Q07DX003 (ip), vehicle: saline) 110 % of control; under setting [3], 80 % of control and 105 % of control; (dose: 200.0 mg/kg/injection, schedule: Q07DX003 (ip), vehicle: saline) 98 % of control; under setting [4], 85 % of control and 86 % of control; (dose: 400.0 mg/kg/injection, schedule: Q07DX003 (ip), vehicle: saline) 50 % of control.

In the case of `O=C1N[C@@H]([C@H]2CC[C@H](Cl)CN2)C(=O)N[C@H]1[C@H]1CC[C@H](Cl)CN1`, the T/C (dose: 0.31 mg/kg/injection, schedule: Q07DX003 (ip), vehicle: water) was 85 % of control; the T/C (dose: 0.63 mg/kg/injection, schedule: Q07DX003 (ip), vehicle: water) was 110 % of control; the T/C (dose: 1.25 mg/kg/injection, schedule: Q07DX003 (ip), vehicle: water) was 79 % of control; the T/C (dose: 2.5 mg/kg/injection, schedule: Q07DX003 (ip), vehicle: water) was 70 % of control; the T/C (dose: 5.0 mg/kg/injection, schedule: Q07DX003 (ip), vehicle: water) was 6 % of control.

On to `Cc1ccc(NCC2(/N=C/c3ccccc3)OC(CO)C(O)C2O)cc1` (stereo not given), for which the T/C is, setting by setting: (dose: 12.5 mg/kg/injection, schedule: Q07DX003 (ip), vehicle: Klucel (hydroxypropylcellulose) (HPC)) 110 % of control; (dose: 25.0 mg/kg/injection, schedule: Q07DX003 (ip), vehicle: Klucel (hydroxypropylcellulose) (HPC)) 69 % of control; (dose: 50.0 mg/kg/injection, schedule: Q07DX003 (ip), vehicle: Klucel (hydroxypropylcellulose) (HPC)) 117 % of control; (dose: 100.0 mg/kg/injection, schedule: Q07DX003 (ip), vehicle: Klucel (hydroxypropylcellulose) (HPC)) 106 % of control; (dose: 200.0 mg/kg/injection, schedule: Q07DX003 (ip), vehicle: Klucel (hydroxypropylcellulose) (HPC)) 59 % of control.

Turning to `Cc1c(CNc2ccc(C(=O)NC(CC(=O)O)C(=O)O)cc2)ccc2nc(N)nc(N)c12` (stereo not given), the T/C runs as follows: (dose: 1.56 mg/kg/injection, schedule: Q07DX002 (ip), vehicle: saline with Tween-80) 86 % of control; (dose: 1.56 mg/kg/injection, schedule: Q07DX002 (ip), vehicle: saline) 122 % of control; (dose: 3.12 mg/kg/injection, schedule: Q07DX002 (ip), vehicle: saline with Tween-80) 87 % of control; (dose: 3.12 mg/kg/injection, schedule: Q07DX002 (ip), vehicle: saline) 96 % of control; (dose: 6.25 mg/kg/injection, schedule: Q07DX002 (ip), vehicle: saline with Tween-80) 35 % of control; (dose: 6.25 mg/kg/injection, schedule: Q07DX002 (ip), vehicle: saline) 48 % of control. Further, the T/C under setting [8] is 32 % of control.
